Counter-ions that a name gives are not always drawn. Like-named read-outs stand apart in the source and are kept apart here.
Columns and labels:
angiotensin II receptor = assay: Adrenal Glomerulosa Test System: I125-angiotensin II binding to adrenal membranes; details: percent inhibition of I125 angiotensin binding at 10^-5 M of antagonist; rat adrenal membranes; 0.1 nM I125-angiotensin II
Method: The ability for compounds of Formula I to block angiotensin II receptor binding was determined using the adrenal glomerulosa assay.
Binding of I^125 -angiotensin II to adrenal membranes was routinely carried out in 96-well filtration plates. Adrenal membranes were prepared from the capsular portion (glomerulosal layer attached) of rat adrenal glands by differential centrifugation. Briefly, capsules were homogenized in a solution containing sucrose, 250 mM; MgCl2, 1 mM; and tris, 5 mM at pH 7.5 and 4° C. using a polytron at setting 5 for 20 seconds. The homogenate was stirred, gently, for 15 minutes at 4° C. and then centrifuged 10 minutes, at 1000×g, 4° C. The supernatant was centrifuged 30 minutes, at 30,000 ×g, 4° C. and the resulting pellet resuspended in 50 mM tris. Membrane preparations were stored in aliquots at -70° C. until used. Binding of I^125 -angiotensin II to adrenal membranes was performed at room temperature for 90 minutes in 96-well plates containing a hydrophilic polyvinylidene fluoride membrane (0.45 μm, millipore-GV multiscreen). Each 250 μl incubate contained the following (final concentration): tris, 50 mM; NaCl, 120 mM; MgCl2, 5 mM; dithiothrietol 1 mM; bovine serum albumin, 0.05%; I^125 -angiotensin II, 0.1 nM; and adrenal membrane protein, 8-15 μg. Antagonists were added in concentrations from 10 nM to 100 μM. Non-specific binding was measured in the presence of 0.1 μM Sar1, Ile8 angiotensin II. Binding was terminated by vacuum filtration. Receptor-ligand complex trapped on filters was washed 3 times with 300 μl ice-cold wash solution (tris, 50 mM; NaCl, 120 mM; MgCl2, 5 mM; dithiothrietol, 1 mM). Filter discs were dried, punched out and counted in a gamma counter at 52% efficiency. Specific binding represented 96% of total binding (approximately 150 fmol angiotensin II/mg protein). Data are expressed as the percent inhibition of I^125 angiotensin binding at 10^-5 M of antagonist.

[1] = target: T1, angiotensin-induced vasoconstriction (rabbit aorta) (Oryctolagus cuniculus, UniProt P34976); assay: Rabbit Aorta Test System: antagonism of angiotensin II-induced contraction of aortic rings; format: cell-based, New Zealand white rabbits
T1 construct: the thoracic aortas were removed and cleaned of excess fat and connective tissue; from tissue; host or cells: thoracic aorta rings of New Zealand white rabbits
T1 sequence (P34976 1-359): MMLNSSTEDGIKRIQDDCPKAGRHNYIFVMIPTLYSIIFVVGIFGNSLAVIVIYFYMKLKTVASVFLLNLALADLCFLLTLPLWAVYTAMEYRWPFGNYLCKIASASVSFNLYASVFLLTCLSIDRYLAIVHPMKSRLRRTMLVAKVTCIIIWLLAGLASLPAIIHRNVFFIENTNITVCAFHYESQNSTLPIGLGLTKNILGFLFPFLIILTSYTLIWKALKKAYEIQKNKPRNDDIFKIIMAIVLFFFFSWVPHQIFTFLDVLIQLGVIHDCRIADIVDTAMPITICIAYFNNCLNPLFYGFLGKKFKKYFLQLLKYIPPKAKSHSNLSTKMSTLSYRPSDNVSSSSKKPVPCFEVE
Method: The ability to antagonize angiotensin-induced vasoconstriction was evaluated in the rabbit aorta test system.
New Zealand white rabbits (Hazelton, 2-3 kg) were sacrificed by cervical dislocation and the thoracic aortas were removed and cleaned of excess fat and connective tissue. Rings of tissue (3 mm wide) were mounted in 10 ml tissue baths between 2 L-shaped stainless steel hooks. The lower hook was attached to a stationary rod and the upper hook to a force displacement transducer (Grass model FT.03). The bath chambers were maintained at 37° C., aerated with 95% O2 /5% CO2, and contained physiological solution of the following composition (mM): NaCl, 117; glucose, 5.6; NaH2 PO4, 1.0; MgSO4, 0.7; KCl, 5.2; CaCl2, 1.8; NaHCO3, 26; and phentolamine HCl, 0.003.
Rings were equilibrated for 1 hour with 2 g of tension. During the equilibration period, the tissues were washed by overflow every 15 minutes. Rings were then exposed to 10^-8 M angiotensin II (AII) and were allowed to contract until a steady state was reached. Tissues were then washed every 15 minutes for 1 hour. This was repeated every hour until the AII response stabilized. A cumulative concentration-response curve to AII (10^-10 to 10^-7 M) was then obtained. At the conclusion of the concentration-response curve, tissues were washed every 2 minutes until baseline tension was reached, then every 15 minutes for 30 minutes. Compounds were added in a volume of 10 μl DMSO and allowed to incubate for 30 minutes before repeating the concentration-response curve to AII. Contractions to AII were expressed as a percent of the maximum contraction obtained in the control curve (the first AII concentration-response curve). EC50 's (concentration that contracted the tissues to 1/2 the control maximum) for each curve were calculated using a 4 parameter logistics model (NonLin, SAS institute).

[2] = pA2 = -log KB, KB = [molar concentration of antagonist]/[(EC50 AII with antagonist/EC50 AII without antagonist)-1], 30 min incubation, AII 10^-10 to 10^-7 M, read-out: Rabbit Aorta (pA2) (converted)

Row | SMILES | Adrenal Glomerulosa (% Inhibition of Binding) (angiotensin II receptor) | Kb [1, 2] | Kb [1]
1 | CCCCCCC(C(=O)OCC)n1cnc(NC(=O)c2ccccc2C(=O)O)c1 (stereo not drawn) [Example 5, 4-[(2-Carboxybenzoyl)amino]-α-hexyl-1H-imidazole-1-acetic acid ethyl ester] | 39% | 3310 nM | –
2 | CCCCCCC(C(=O)OCC)c1ccc(NC(=O)c2ccccc2C(=O)O)cc1 (stereo not drawn) [Example 9, 4-[(2-Carboxybenzoyl)amino]-α-hexylbenzene-acetic acid ethyl ester] | 25% | 18200 nM | –
3 | CCCCCCC(CC(=O)OC)n1cnc(NC(=O)c2ccccc2C(=O)O)c1 (stereo not drawn) [Example 10, 4-[(2-Carboxybenzoyl)amino]-β-hexyl-1H-imidazole-1-propanoic acid methyl ester] | 57% | 2340 nM | –
4 | CCCCCCC(C#N)n1cnc(NC(=O)c2ccccc2C(=O)O)c1 (stereo not drawn) [Example 12, 4-[(2-Carboxybenzoyl)amino]-α-hexyl-1H-imidazole-1-acetonitrile] | 44% | 2510 nM | –
5 | CCCCCCC(C(=O)OCC)n1cnc(NC(=O)C(O)(c2ccccc2)c2ccccc2)c1 (stereo not drawn) [Example 14, α-Hexyl-4-[(diphenylhydroxyacetyl)amino]-1H-imidazole-1-acetic acid ethyl ester] | 2% | – | 55000 nM
6 | CCCCCCC(C(=O)OCC)n1cnc(NC(=O)C2c3ccccc3-c3ccccc32)c1 (stereo not drawn) [Example 15, 4-[(9H-Fluoren-9-ylcarbonyl)amino]-αhexyl-1H-imidazole-1-acetic acid ethyl ester] | 5% | 75900 nM | –
7 | CCCCCCC(C(=O)OCC)c1ccc(NC(=O)C2c3ccccc3-c3ccccc32)cc1 (stereo not drawn) [Example 18, 4-[(9H-Fluoren-9-ylcarbonyl)amino]-α-hexylbenzeneacetic acid ethyl ester] | 3% | 794000 nM | –
8 | CCCCCCC(C(=O)O)n1cnc(NC(=O)C(CC)(c2ccccc2)c2ccccc2)c1 (stereo not drawn) [Example 26, α-Hexyl-4-[(1-oxo-2,2-diphenylbutyl)amino]-1H-imidazole-1-acetic acid] | 57% | 10200 nM | –
9 | CCCCCCC(CC(=O)O)n1cnc(NC(=O)c2cccc(O)c2C(=O)O)c1.O (stereo not drawn) [Example 27, β-Hexyl-4-[(2-carboxy-3-hydroxybenzoyl)amino]-1H-imidazole-1-propanoic acid hydrate] | 64% | 141 nM | –
10 | CCCCCCC(C(=O)O)n1cnc(NC(=O)c2ccc(C)cc2C(=O)O)c1 (stereo not drawn) [Example 28, α-Hexyl-4-[(2-carboxy-4-methylbenzoyl)amino]-1H-imidazole-1-acetic a cid] | 10% | 3470 nM | –
11 | CCCCCCC(C(=O)O)n1cnc(NC(=O)C(O)(c2ccccc2)c2ccccc2)c1 (stereo not drawn) [Example 29, α-Hexyl-[(hydroxydiphenylacetyl)amino]-1H-imidazole-1-acetic acid hydrochloride] | – | – | 25700 nM
12 | CCCCCCC(C(=O)O)n1cnc(NC(=O)c2cccc(O)c2C(=O)O)c1 (stereo not drawn) [Example 30, α-Hexyl-4-[(2-carboxy-3-hydroxybenzoyl)amino]-1H-imidazole-1-acetic monohydrate] | 66% | 110 nM | –
13 | CCCCCCC(C(=O)O)n1cnc(NC(=O)C2c3ccccc3-c3ccccc32)c1 (stereo not drawn) [Example 31, α-Hexyl-9-[(9H-fluoren-9-ylcarbonyl)amino]-1H-imidazole-1-acetic acid hydrochloride] | 70% | 3090 nM | –
14 | CCCCCCC(C(=O)O)n1cnc(NC(=O)C2c3ccccc3Oc3ccccc32)c1.Cl.O (stereo not drawn) [Example 32, α-Hexyl-4-[(9H-xanthen-9-ylcarbonyl)amino]-1H-imidazole-1-acetic acid hydrochloride monohydrate] | 54% | 21400 nM | –
15 | CCCCCCC(C(=O)O)n1cnc(NC(=O)c2ccccc2C(=O)O)c1 (stereo not drawn) [Example 33, 4-[(2-Carboxybenzoyl)amino]-α-hexyl-1H-imidazole-1-acetic acid] | 42% | 631 nM | –
16 | CCCCCCC(C(=O)O)n1cnc(NC(=O)Cc2ccccc2C(=O)O)c1.O (stereo not drawn) [Example 34, α-Hexyl-4-{[(2-carboxyphenyl)acetyl]-amino}-1H-imidazole-1-aceticacid hydrate] | 31% | 1910 nM | –

Row | SMILES | Adrenal Glomerulosa (% Inhibition of Binding) (angiotensin II receptor) | Kb [1, 2] | Kb [1]
17 | CCCCCCC(C(=O)O)n1cnc(NC(=O)c2c(C(=O)O)ccc3ccccc23)c1 (stereo not drawn) [Example 35, α-Hexyl-4-{[(2-carboxy-1-naphthalenyl)carbonyl]amino}-1H-imidazole-1-acetic acid] | 36% | 2630 nM | –
18 | CCCCCCC(C(=O)O)n1cnc(NC(=O)c2cc(C(=O)O)ccc2O)c1 (stereo not drawn) [Example 36, α-Hexyl-4-[(2-hydroxy-5-carboxybenzoyl)amino]-1H-imidazole-1-acetic acid] | 5% | 11700 nM | –
19 | CCCCCCC(C(=O)O)n1cnc(NC(=O)c2c(F)cccc2C(=O)O)c1 (stereo not drawn) [Example 37, 4-[(2-Carboxy-6-fluorobenzoyl)amino]-α-hexyl-1H-imidazole-1-acetic a cid hydrate (1:2.5)] | 0% | 1580 nM | –
20 | CCCCCCC(C(=O)O)c1ccc(NC(=O)c2ccccc2C(=O)O)cc1 (stereo not drawn) [Example 38, α-Hexyl-4-[(2-carboxybenzoyl)amino]benzeneacetic acid] | 30% | 1660 nM | –
21 | CCCCCCC(CC(=O)O)n1cnc(NC(=O)c2ccccc2C(=O)O)c1.O (stereo not drawn) [Example 39, 4-[(2-Carboxybenzoyl)amino]-β-hexyl-1H-imidazole-1-propanoic acid monohydrate] | 44% | 661 nM | –
22 | CCCCCCC(C(=O)O)n1cnc(NC(=O)c2c(C(=O)O)cccc2[N+](=O)[O-])c1 (stereo not drawn) [Example 40, α-Hexyl-4-[(2-carboxy-6-nitrobenzoyl)-amino]-1H-imidazole-1-acetic a cid] | 9% | 1620 nM | –
23 | CCCCCCC(CCC(=O)O)n1cnc(NC(=O)c2ccccc2C(=O)O)c1 (stereo not drawn) [Example 41, 4-[(2-Carboxybenzoyl)amino]-γ-hexyl-1H-imidazole-1-butanoic acid hemihydrate] | 30% | 646 nM | –
24 | CCCCCCC(C(=O)O)n1cnc(NC(=O)c2ccccc2-c2nnn[nH]2)c1.O (stereo not drawn) [Example 42, α-Hexyl-4-{[2-(tetrazol-5-yl)benzoyl]-amino}-1H-imidazole-1-acetic a cid monohydrate] | 58% | 331 nM | –
25 | CCCCCCC(C(=O)O)n1cnc(NC(=O)c2ccccc2CC(=O)O)c1.O (stereo not drawn) [Example 43, 4-{[2-(Carboxymethyl)benzoyl]amino}-α-hexyl-1H-imidazole-1-aceticacid monohydrate] | 0% | 955 nM | –
26 | CCCCCCC(C(=O)O)n1cnc(C(=O)NC2c3ccccc3-c3ccccc32)c1.Cl (stereo not drawn) [Example 44, α-Hexyl-4-{[(9H-fluoren-9-yl)amino]-carbonyl}-1H-imidazole-1-acetic acid hydrochloride] | 67% | 3980 nM | –
27 | CCCCCCC(C(=O)O)n1cnc(NC(=O)c2cccc([N+](=O)[O-])c2C(=O)O)c1.O (stereo not drawn) [Example 45, α-Hexyl-4-[(2-carboxy-3-nitrobenzoyl)-amino]-1H-imidazole-1-acetic a cid hydrate] | 0% | 4170 nM | –
28 | CCCCCCC(C(=O)O)n1cnc(C(=O)NCc2ccc(O)cc2)c1.Cl (stereo not drawn) [Example 81, α-Hexyl-4-({[(4-hydroxyphenyl)methyl]-amino}carbonyl)-1H-imidazole-1-acetic acid hydrochloride] | 41% | – | –
29 | CCCCCCC(C(=O)O)n1cnc(C(=O)Nc2ccccc2O)c1.Cl (stereo not drawn) [Example 82, α-Hexyl-4-{[(2-hydroxyphenyl)amino]-carbonyl}-1H-imidazole-1-acetic acid hydrochloride] | 62% | – | –
30 | CCCCC(C(=O)O)n1cnc(C(=O)Nc2ccc(O)cc2)c1.Cl (stereo not drawn) [Example 88, α-Butyl-4-{[(4-hydroxyphenyl)amino]-carbonyl}-1H-imidazole-1-acetic acid hydrochloride] | 22% | – | –
31 | CCCCCCC(C(=O)O)n1cnc(NC(=O)c2cccc(NC(C)=O)c2C(=O)O)c1 (stereo not drawn) [Example 97, α-Hexyl-4-{[3-(acetylamino)-2-carboxybenzoyl]amino}-1H-imidazole-1-acetic acid hemihydrate] | – | 240 nM | –
